Experimental data from patent US8778888B2, “Cystine knot peptides binding to alpha IIb beta 3 integrins and methods of use” (The Board of Trustees of the Leland Stanford Junior …, priority 2009, dated 2014).

Experiments:
[1] = target: T1, αIIbβ3 integrin (K562-αIIbβ3 cells) (Homo sapiens, UniProt P05106+P08514); test: Cell binding assay on K562-αIIbβ3 cells (flow cytometry); conditions: K562-αIIbβ3 versus K562-αvβ3 cells
T1 construct: expressed in transfected cells; host or cells: K562 leukemia cells (from S. Blystone)
Experimental: K562 cells stably expressing αIIbβ3, αvβ3, or αvβ5 were obtained from S. Blystone and maintained in IMDM media (Gibco) containing 10% FBS and 1.0 mg/mL geneticin. For binding assays, 10^5 cells were suspended in IBB, and varying concentrations of AgRP peptides were added. After 3 hour incubation at 4° C., the cells were centrifuged, aspirated, and resuspended in ice-cold BPBS containing a 1:20 dilution of fluorescein-conjugated goat anti-His antibody (Bethyl) for […]. The cells were then centrifuged, aspirated, and stored as pellets on ice until analysis by flow cytometry using a BD FACS Caliber instrument Becton Dickinson. Binding data was analyzed with FlowJo (Treestar, Inc.) and data was fit to sigmoidal plots using Kaleidagraph (Synergy Software) to calculate equilibrium dissociation constants. Experiments were performed at least 3 times and data are presented as average values with standard deviations.
To determine the integrin binding affinities and specificities of the engineered AgRP peptides, direct binding assays were performed using K562 leukemia cells that have been transfected to stably express different integrin receptors See J. Cell Biol. 127(4) (1994). Cells were incubated in the presence of varying concentrations of AgRP peptides at 4° C., to minimize receptor internalization, followed by staining with a fluorescein-conjugated anti-hexahistidine antibody and analysis by flow cytometry. Equilibrium dissociation constants (KD values) were determined by plotting AgRP peptide concentration (log scale) versus normalized mean fluorescence intensity, then fitting the data to a sigmoidal curve.

[2] = system: human platelets; conditions: ADP-activated human platelets; comparison with eptifibatide
Experimental: Human platelets isolated by pheresis were obtained from the Stanford Blood Center and stored in serum with 7% acid/citrate/dextrose (ACD) solution. Prior to use, the platelets were centrifuged, aspirated, washed once with Tyrode's buffer (140 mM NaCl, 3 mM KCl, 12 mM NaHCO3, 0.4 mM NaH2PO4, 2 mM MgCl2, 0.1% glucose, pH 7.4), and counted using a haemacytometer. Counted platelets were resuspended in fresh plasma to a final concentration of approximately 2.8×10^8 cells/mL. 180 μL of the platelet solution, or approximately 5×10^7 platelets, were added to separate wells in a 96-well microtiter plate. AgRP peptide or eptifibatide (Cell Sciences) were added to the wells at varying concentrations, after which the platelets were activated with 25 μM ADP. Absorbance at 365 nm was monitored over 1 hr using a Synergy 4 microplate reader (BioTek Instrumentation) with readings taken every 35 s, with 3 s of shaking between readings. […] Experiments were performed at least 3 times.
Next, the effects of the engineered AgRP peptides on αIIbβ3-mediated platelet aggregation were studied. Three αIIbβ3-specific peptides (2bA, 2bJ, and 2bO) and two β3-specific peptides (b3A and b3I) were tested again. […] Microtiter plates containing platelets in serum in the presence or absence of AgRP peptides were activated using ADP at a final concentration of 25 μM, and absorbance at 365 nm was monitored over 1 h.

T1 sequence (P08514 32-887 limits assumed): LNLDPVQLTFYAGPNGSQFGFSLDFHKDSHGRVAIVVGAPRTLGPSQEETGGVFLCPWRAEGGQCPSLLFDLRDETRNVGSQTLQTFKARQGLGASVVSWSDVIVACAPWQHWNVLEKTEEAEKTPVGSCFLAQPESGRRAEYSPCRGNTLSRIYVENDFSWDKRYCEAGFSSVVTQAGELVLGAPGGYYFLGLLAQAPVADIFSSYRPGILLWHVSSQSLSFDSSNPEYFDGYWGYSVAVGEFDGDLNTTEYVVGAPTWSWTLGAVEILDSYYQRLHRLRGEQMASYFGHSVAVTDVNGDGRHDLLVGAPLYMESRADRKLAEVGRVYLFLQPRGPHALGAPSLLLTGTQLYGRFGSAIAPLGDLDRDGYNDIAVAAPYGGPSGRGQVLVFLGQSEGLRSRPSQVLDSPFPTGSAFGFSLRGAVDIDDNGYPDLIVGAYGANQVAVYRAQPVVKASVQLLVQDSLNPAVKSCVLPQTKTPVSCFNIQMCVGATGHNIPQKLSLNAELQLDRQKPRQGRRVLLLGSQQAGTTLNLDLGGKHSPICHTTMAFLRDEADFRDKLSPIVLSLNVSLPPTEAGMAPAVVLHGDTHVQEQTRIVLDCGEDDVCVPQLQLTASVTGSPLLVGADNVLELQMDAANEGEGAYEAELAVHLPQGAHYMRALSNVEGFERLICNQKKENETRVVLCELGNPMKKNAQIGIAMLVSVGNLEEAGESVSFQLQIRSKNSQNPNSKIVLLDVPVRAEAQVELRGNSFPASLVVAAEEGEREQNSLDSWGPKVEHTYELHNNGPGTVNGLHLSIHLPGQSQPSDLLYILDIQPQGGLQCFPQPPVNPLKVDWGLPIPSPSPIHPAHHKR
T1 sequence (P08514 891-1039 partner limits assumed): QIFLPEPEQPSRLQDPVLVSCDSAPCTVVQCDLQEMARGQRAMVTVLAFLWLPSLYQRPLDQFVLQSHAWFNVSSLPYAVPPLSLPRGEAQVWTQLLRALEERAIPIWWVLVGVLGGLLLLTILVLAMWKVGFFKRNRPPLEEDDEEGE
T1 sequence (P05106 27-788): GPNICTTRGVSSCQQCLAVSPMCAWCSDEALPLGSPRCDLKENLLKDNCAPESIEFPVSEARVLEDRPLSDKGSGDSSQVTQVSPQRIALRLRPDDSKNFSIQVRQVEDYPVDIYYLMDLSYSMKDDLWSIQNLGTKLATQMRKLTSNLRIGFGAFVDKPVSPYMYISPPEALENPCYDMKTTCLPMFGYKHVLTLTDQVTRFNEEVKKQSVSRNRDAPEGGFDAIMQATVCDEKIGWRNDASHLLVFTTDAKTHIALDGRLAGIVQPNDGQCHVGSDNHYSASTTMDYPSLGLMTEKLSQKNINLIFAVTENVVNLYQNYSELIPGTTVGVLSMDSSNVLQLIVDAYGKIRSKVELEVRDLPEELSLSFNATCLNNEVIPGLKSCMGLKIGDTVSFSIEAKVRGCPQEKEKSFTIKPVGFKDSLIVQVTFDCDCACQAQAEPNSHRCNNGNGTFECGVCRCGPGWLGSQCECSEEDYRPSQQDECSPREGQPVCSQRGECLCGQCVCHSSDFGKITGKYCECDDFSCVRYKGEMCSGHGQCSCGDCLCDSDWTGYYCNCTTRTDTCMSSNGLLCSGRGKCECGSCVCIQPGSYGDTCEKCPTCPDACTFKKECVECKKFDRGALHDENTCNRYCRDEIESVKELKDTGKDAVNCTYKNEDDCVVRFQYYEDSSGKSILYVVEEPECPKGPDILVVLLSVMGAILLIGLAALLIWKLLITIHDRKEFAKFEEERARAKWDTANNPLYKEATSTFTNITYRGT

SMILES	integrin binding specificity on K562 cell lines [1]	inhibition of platelet aggregation (in words) [2]
CC(C)C[C@@H]1NC(=O)[C@@H]2CSSC[C@@H]3NC(=O)[C@H]([C@@H](C)O)NC(=O)[C@H](C)NC(=O)[C@H](C)NC(=O)[C@@H]4CCCN4C(=O)[C@H](CC(=O)O)NC(=O)[C@H](CSSC[C@H](NC(=O)CNC(=O)[C@H](CCCNC(=N)N)NC(=O)[C@@H]4CCCN4C(=O)[C@H](CCCCN)NC(=O)[C@H](CC(=O)O)NC(=O)[C@H](CC(=O)O)NC(=O)[C@H](CC(=O)O)NC(=O)[C@H](CC(=O)O)NC(=O)[C@H](CCCCN)NC(=O)[C@H](Cc4ccc(O)cc4)NC(=O)[C@H](CC(=O)O)NC(=O)[C@@H](NC(=O)[C@@H](N)Cc4ccc(O)cc4)C(C)C)C(=O)N[C@@H](C(C)C)C(=O)N[C@@H](CCCNC(=N)N)C(=O)N[C@@H](CC(C)C)C(=O)N[C@@H](Cc4c[nH]cn4)C(=O)N[C@@H](CCC(=O)O)C(=O)N[C@@H](CO)C(=O)N2)NC(=O)[C@H](CSSC[C@@H](C(=O)N[C@@H](CCCNC(=N)N)C(=O)N[C@H](C(=O)N[C@@H](CCCNC(=N)N)C(=O)N[C@@H](Cc2c[nH]cn2)C(=O)N[C@@H](Cc2c[nH]cn2)C(=O)N[C@@H](Cc2c[nH]cn2)C(=O)N[C@@H](Cc2c[nH]cn2)C(=O)N[C@@H](Cc2c[nH]cn2)C(=O)N[C@@H](Cc2c[nH]cn2)C(=O)O)[C@@H](C)O)NC(=O)[C@H](Cc2ccc(O)cc2)NC(=O)[C@@H]2CSSC[C@H](NC(=O)[C@H](Cc4ccc(O)cc4)NC3=O)C(=O)N[C@@H](CC(C)C)C(=O)N[C@@H](CCCCN)C(=O)N[C@@H](CCCNC(=N)N)C(=O)NCC(=O)N[C@@H](CC(=O)O)C(=O)N[C@@H](Cc3c[nH]c4ccccc34)C(=O)N[C@@H](CCCCN)C(=O)NCC(=O)N[C@@H](CCCCN)C(=O)N2)NC(=O)[C@@H]2CCCN2C(=O)[C@H](C(C)C)NC(=O)[C@H](CCC(N)=O)NC(=O)[C@H](CCC(N)=O)NC(=O)CNC1=O [Clone 2bA]	bound K562-αIIbβ3 cells only	
CC(C)C[C@@H]1NC(=O)[C@@H]2CSSC[C@@H]3NC(=O)[C@H]([C@@H](C)O)NC(=O)[C@H](C)NC(=O)[C@H](C)NC(=O)[C@@H]4CCCN4C(=O)[C@H](CC(=O)O)NC(=O)[C@H](CSSC[C@H](NC(=O)CNC(=O)[C@H](CCCNC(=N)N)NC(=O)[C@@H]4CCCN4C(=O)[C@H](CCCCN)NC(=O)[C@H](CC(=O)O)NC(=O)[C@H](CC(=O)O)NC(=O)[C@H](CC(=O)O)NC(=O)[C@H](CC(=O)O)NC(=O)[C@H](CCCCN)NC(=O)[C@H](Cc4ccc(O)cc4)NC(=O)[C@H](CC(=O)O)NC(=O)[C@@H](NC(=O)[C@@H](N)Cc4ccc(O)cc4)C(C)C)C(=O)N[C@@H](C(C)C)C(=O)N[C@@H](CCCNC(=N)N)C(=O)N[C@@H](CC(C)C)C(=O)N[C@@H](Cc4c[nH]cn4)C(=O)N[C@@H](CCC(=O)O)C(=O)N[C@@H](CO)C(=O)N2)NC(=O)[C@H](CSSC[C@@H](C(=O)N[C@@H](CCCNC(=N)N)C(=O)N[C@H](C(=O)N[C@@H](CCCNC(=N)N)C(=O)N[C@@H](Cc2c[nH]cn2)C(=O)N[C@@H](Cc2c[nH]cn2)C(=O)N[C@@H](Cc2c[nH]cn2)C(=O)N[C@@H](Cc2c[nH]cn2)C(=O)N[C@@H](Cc2c[nH]cn2)C(=O)N[C@@H](Cc2c[nH]cn2)C(=O)O)[C@@H](C)O)NC(=O)[C@H](Cc2ccc(O)cc2)NC(=O)[C@@H]2CSSC[C@H](NC(=O)[C@H](Cc4ccc(O)cc4)NC3=O)C(=O)N[C@@H](CC(N)=O)C(=O)N[C@@H](CCCCN)C(=O)N[C@@H](CCCNC(=N)N)C(=O)NCC(=O)N[C@@H](CC(=O)O)C(=O)N[C@@H](Cc3c[nH]c4ccccc34)C(=O)N[C@@H](CCCNC(=N)N)C(=O)N[C@@H](CO)C(=O)N[C@@H](CCCCN)C(=O)N2)NC(=O)[C@@H]2CCCN2C(=O)[C@H](C(C)C)NC(=O)[C@H](CCC(N)=O)NC(=O)[C@H](CCC(N)=O)NC(=O)CNC1=O [Clone 2bJ]	bound K562-αIIbβ3 cells only	
CC(C)C[C@@H]1NC(=O)[C@@H]2CSSC[C@@H]3NC(=O)[C@H]([C@@H](C)O)NC(=O)[C@H](C)NC(=O)[C@H](C)NC(=O)[C@@H]4CCCN4C(=O)[C@H](CC(=O)O)NC(=O)[C@H](CSSC[C@H](NC(=O)CNC(=O)[C@H](CCCNC(=N)N)NC(=O)[C@@H]4CCCN4C(=O)[C@H](CCCCN)NC(=O)[C@H](CC(=O)O)NC(=O)[C@H](CC(=O)O)NC(=O)[C@H](CC(=O)O)NC(=O)[C@H](CC(=O)O)NC(=O)[C@H](CCCCN)NC(=O)[C@H](Cc4ccc(O)cc4)NC(=O)[C@H](CC(=O)O)NC(=O)[C@@H](NC(=O)[C@@H](N)Cc4ccc(O)cc4)C(C)C)C(=O)N[C@@H](C(C)C)C(=O)N[C@@H](CCCNC(=N)N)C(=O)N[C@@H](CC(C)C)C(=O)N[C@@H](Cc4c[nH]cn4)C(=O)N[C@@H](CCC(=O)O)C(=O)N[C@@H](CO)C(=O)N2)NC(=O)[C@H](CSSC[C@@H](C(=O)N[C@@H](CCCNC(=N)N)C(=O)N[C@H](C(=O)N[C@@H](CCCNC(=N)N)C(=O)N[C@@H](Cc2c[nH]cn2)C(=O)N[C@@H](Cc2c[nH]cn2)C(=O)N[C@@H](Cc2c[nH]cn2)C(=O)N[C@@H](Cc2c[nH]cn2)C(=O)N[C@@H](Cc2c[nH]cn2)C(=O)N[C@@H](Cc2c[nH]cn2)C(=O)O)[C@@H](C)O)NC(=O)[C@H](Cc2ccc(O)cc2)NC(=O)[C@@H]2CSSC[C@H](NC(=O)[C@H](Cc4ccc(O)cc4)NC3=O)C(=O)N[C@@H](CCCCN)C(=O)N[C@@H](CCCCN)C(=O)N[C@@H](CCCNC(=N)N)C(=O)NCC(=O)N[C@@H](CC(=O)O)C(=O)N[C@@H](Cc3c[nH]c4ccccc34)C(=O)N[C@@H](CCCCN)C(=O)N[C@@H](CCC(=O)O)C(=O)N[C@@H](CCCNC(=N)N)C(=O)N2)NC(=O)[C@@H]2CCCN2C(=O)[C@H](C(C)C)NC(=O)[C@H](CCC(N)=O)NC(=O)[C@H](CCC(N)=O)NC(=O)CNC1=O [Clone 2bO]	bound K562-αIIbβ3 cells only	
CC(C)C[C@@H]1NC(=O)[C@@H]2CSSC[C@@H]3NC(=O)[C@H]([C@@H](C)O)NC(=O)[C@H](C)NC(=O)[C@H](C)NC(=O)[C@@H]4CCCN4C(=O)[C@H](CC(=O)O)NC(=O)[C@H](CSSC[C@H](NC(=O)CNC(=O)[C@H](CCCNC(=N)N)NC(=O)[C@@H]4CCCN4C(=O)[C@H](CCCCN)NC(=O)[C@H](CC(=O)O)NC(=O)[C@H](CC(=O)O)NC(=O)[C@H](CC(=O)O)NC(=O)[C@H](CC(=O)O)NC(=O)[C@H](CCCCN)NC(=O)[C@H](Cc4ccc(O)cc4)NC(=O)[C@H](CC(=O)O)NC(=O)[C@@H](NC(=O)[C@@H](N)Cc4ccc(O)cc4)C(C)C)C(=O)N[C@@H](C(C)C)C(=O)N[C@@H](CCCNC(=N)N)C(=O)N[C@@H](CC(C)C)C(=O)N[C@@H](Cc4c[nH]cn4)C(=O)N[C@@H](CCC(=O)O)C(=O)N[C@@H](CO)C(=O)N2)NC(=O)[C@H](CSSC[C@@H](C(=O)N[C@@H](CCCNC(=N)N)C(=O)N[C@H](C(=O)N[C@@H](CCCNC(=N)N)C(=O)N[C@@H](Cc2c[nH]cn2)C(=O)N[C@@H](Cc2c[nH]cn2)C(=O)N[C@@H](Cc2c[nH]cn2)C(=O)N[C@@H](Cc2c[nH]cn2)C(=O)N[C@@H](Cc2c[nH]cn2)C(=O)N[C@@H](Cc2c[nH]cn2)C(=O)O)[C@@H](C)O)NC(=O)[C@H](Cc2ccc(O)cc2)NC(=O)[C@@H]2CSSC[C@H](NC(=O)[C@H](Cc4ccc(O)cc4)NC3=O)C(=O)N[C@@H](C(C)C)C(=O)NCC(=O)N[C@@H](CCCNC(=N)N)C(=O)NCC(=O)N[C@@H](CC(=O)O)C(=O)N[C@@H](C(C)C)C(=O)N[C@@H](CCCNC(=N)N)C(=O)N[C@@H](CCCNC(=N)N)C(=O)N[C@@H](CCCCN)C(=O)N2)NC(=O)[C@@H]2CCCN2C(=O)[C@H](C(C)C)NC(=O)[C@H](CCC(N)=O)NC(=O)[C@H](CCC(N)=O)NC(=O)CNC1=O [b3A]	bound both K562-αIIbβ3 and K562-αvβ3 cells	slightly more effective
